Measurements from US8821938B2, “Porous drug matrices and methods of manufacture thereof” (Acusphere, Inc., priority 1999, dated 2014).

Experiments:
Type in all cases: physicochemical
[1] = Density of dry powder by Transaxial Pressure (TAP), Micromeritics GeoPyc 1360; conditions: consolidation force of 8 Newtons
[2] = Drug integrity post processing by HPLC
Description: Drug integrity post processing was assessed by High Pressure Liquid Chromatography (“HPLC”) (Hewlett Packard Series 1100 HPLC). […] For paclitaxel, the chromatographic conditions included a Nucleosil column (5:m, C18, 100A, 250×4.6 mm), a mobile phase of 2 mM H3PO4/Acetonitrile (2:3) at a flow rate of 1.5 mL/min, UV detection at 227 nm, and a run time of 25 min.

[3] = Particle size and surface area of drug particles in wetted matrices, Coulter Multisizer II; conditions: reconstituted in aqueous media; electrolyte pre-saturated with drug
Description: Particle size analysis was performed using the Coulter Multisizer II with a 50 micron aperture using siphon mode. Electrolyte was pre-saturated with the drug of interest, and filtered through a 0.22 micron filter prior to addition of lots for analysis to ensure that no portion of the drug within the lot would dissolve during the analysis.

| Density [1] | Purity (drug integrity post processing) [2] | Size (mean particle size of drug particles) [3] | Surface Area (total surface area of drug particles) [3] | Compound |
| --- | --- | --- | --- | --- |
| 0.80 g/mL | 95.7% | 2.42 microns | 0.88 m^2/mL of microparticles | COC1=CC(=O)C[C@@H](C)[C@]12Oc1c(Cl)c(OC)cc(OC)c1C2=O [Griseofulvin Bulk, griseofulvin] |
| – | – | 2.89 microns | 0.66 m^2/mL of microparticles | COc1ccc2cc([C@H](C)C(=O)O)ccc2c1 [Naproxen Bulk, naproxen] |
| – | 100% | – | – | CC(=O)O[C@H]1C(=O)[C@@]2(C)[C@H]([C@H](OC(=O)c3ccccc3)[C@]3(O)C[C@H](OC(=O)[C@H](O)[C@@H](NC(=O)c4ccccc4)c4ccccc4)C(C)=C1C3(C)C)[C@]1(OC(C)=O)CO[C@@H]1C[C@@H]2O [Paclitaxel Bulk, paclitaxel] |
| 0.68 g/mL | 100% | 2.07 microns | 1.43 m^2/mL of microparticles | C[C@]12C=CC(=O)C=C1CC[C@@H]1[C@@H]2C(=O)C[C@@]2(C)[C@H]1CC[C@]2(O)C(=O)CO [Prednisone Bulk, prednisone] |
